Experimental data reported in patent US7538092B2, “Pharmaceutically active oligosaccharide conjugates” (Fresenius Kabi Deutschland GmbH, priority 2002, dated 2009).

Experiment: Determination of solubility in water / PBS
Format: physicochemical
Details: only using solution with extreme pH values

C[C@@H]1[C@H](O)[C@@H](C)/C=C/C=C/C=C/C=C/C=C/C=C/C=C/[C@H](O[C@@H]2O[C@H](C)[C@@H](O)[C@H](N)[C@@H]2O)C[C@@H]2O[C@](O)(C[C@@H](O)C[C@@H](O)[C@H](O)CC[C@@H](O)C[C@@H](O)CC(=O)O[C@H]1C)C[C@H](O)[C@H]2C(=O)O [Amphotericin B]
water solubility: around 0.1 mg per ml
